How the values were obtained:
Format in all cases: physicochemical
[1] = Solubility of compounds in toluene; details: per 100 g toluene
Description: The solubility of the compounds in the toluene were determined as follows: • 1. 1000 mg toluene was placed in the transparent glass sample bottle. • 2. A certain mass of the compound was added into the toluene, and oscillated until completely dissolved. • 3. After the compound was completely dissolved, a certain mass of the compound was further added into the toluene, and oscillated. • 4. The above steps were repeated until the compound wasn't dissolved any more. • 5. The total mass of the compound added was recorded and the solubility was obtained by calculation.

[2] = Absorption spectrum, emission spectrum and extinction coefficient in toluene solution; details: for Molar extinction coefficient of the toluene solution: at maximum absorption peak
Description: The extinction coefficients of the compounds and their absorption and emission spectrums in the solution were determined as follows: • 1. The compound with a certain amount of substance concentration in the toluene was prepared in a volumetric flask. • 2. The absorption spectrum of the solution was measured by using an ultraviolet-visible spectrophotometer (Puxi T9s) to obtain the absorption peak wavelength. • 3. The absorbance of the maximum absorption peak divided by the amount of substance concentration is the molar extinction coefficient of the compound. • 4. The emission spectrum of the solution was measured by using a fluorescent spectroscope (Hitachi, F-4700 FL Spectrophotometer) to obtain the emission peak wavelength.
(§1) The extinction coefficients of the compounds and their absorption and emission peaks in the solution and film are shown in Table 3.

[3] = Absorption and emission spectrum in spin-coated film; details: for Red shift of the spectrum in the film relative to the solution: film vs toluene solution; for Absorption peak of the film / Emission peak of the film: spin-coated film on glass
Description: The Absorption and emission spectrums of the compounds in the film were determined as follows: • 1. The compound with a certain concentration in the toluene was prepared. • 2. The prepared toluene solution was dropped onto a clean glass substrate. • 3. Spin-coating, and then heating at the 80° C. for 1 min. • 4. The absorption spectrum of the film was measured by using an ultraviolet-visible spectrophotometer (Puxi T9s) to obtain the absorption peak wavelength. • 5. The emission spectrum of the film was measured by using a fluorescent spectroscope (Hitachi, F-4700 FL Spectrophotometer) to obtain the emission peak wavelength.
as §1

[4] = UV stability of compounds in toluene (absorbance decay, t80); details: for Times t80: UV LEDs 365 nm & 255 nm, 12 cm, time until absorbance decayed to 80% of initial value
Description: The UV stability of the compounds were tested as follows:
The compound was dissolved in the toluene with a concentration of 1×10^5 mol/L. 3 mL solution was added to the cuvette with a lid and the lid was screwed on tightly, then the cuvette was placed in the ultraviolet-visible spectrophotometer to test the absorption spectrum, the absorbance of the maximum absorption peak was recorded as the initial value. The cuvette was placed at a distance of 12 cm from the UV LEDs (365 nm & 255 nm), irradiated for a period and tested its absorption spectrum, then continued to be irradiated after the test, and repeated until the absorbance decayed to 80% of its initial value, the time was recorded as t80.

| Structure (SMILES) | Solubilities(/100 g toluene) [1] | Molar extinction coefficient of the toluene solution [2] | Red shift of the spectrum in the film relative to the solution [3] | other results |
| --- | --- | --- | --- | --- |
| CCCCCCCCc1ccc(-c2cc(OC)ccc2N(c2cc(F)c(F)c(F)c2)c2cc(N(c3cc(F)c(F)c(F)c3)c3ccc(OC)cc3-c3ccc(CCCCCCCC)cc3)c3ccc4c(N(c5cc(F)c(F)c(F)c5)c5ccc(OC)cc5-c5ccc(CCCCCCCC)cc5)cc(N(c5cc(F)c(F)c(F)c5)c5ccc(OC)cc5-c5ccc(CCCCCCCC)cc5)c5ccc2c3c54)cc1 [Compound 24] | >10 g | 70000 L/mol | very small red shift | Times t80 [4]: 352 min |
| Cc1cccc(C)c1N(c1nc(-c2ccccc2)nc(-c2ccccc2)n1)c1cc(C(C)C)c2ccc3c(N(c4nc(-c5ccccc5)nc(-c5ccccc5)n4)c4c(C)cccc4C)cc(C(C)C)c4ccc1c2c43 [Compound 18] | >1 g |  |  |  |
| CC(C)c1cccc(C(C)C)c1N(c1cc(C(C)(C)C)cc(C(C)(C)C)c1)c1cc(N(c2cc(C(C)(C)C)cc(C(C)(C)C)c2)c2c(C(C)C)cccc2C(C)C)c2ccc3c(N(c4cc(C(C)(C)C)cc(C(C)(C)C)c4)c4c(C(C)C)cccc4C(C)C)cc(N(c4cc(C(C)(C)C)cc(C(C)(C)C)c4)c4c(C(C)C)cccc4C(C)C)c4ccc1c2c43 [Compound 9] | >20 g |  |  |  |
| Fc1ccc(N(c2ccccc2)c2cc(N(c3ccccc3)c3ccc(F)cc3)c3ccc4c(N(c5ccccc5)c5ccc(F)cc5)cc(N(c5ccccc5)c5ccc(F)cc5)c5ccc2c3c54)cc1 [Compound 16] | >1.5 g | 37000 L/mol | large red shift | Absorption peak of the toluene solution [2]: 466 nm; Emission peak of the toluene solution [2]: 493 nm; Absorption peak of the film [3]: 469 nm; Emission peak of the film [3]: 551 nm; Times t80 [4]: 227 min; UV stability compared with the unfluorinated compound 20 ([4]; UV irradiation): greatly improved |
| CC(C)(C)c1ccc2c(c1)B1c3c(c4c5c(c3-n3c6ccc(C(C)(C)C)cc6c6cc(C(C)(C)C)cc1c63)Oc1ccc(C(C)(C)C)cc1B5c1cc(C(C)(C)C)cc3c5cc(C(C)(C)C)ccc5n-4c13)O2 [Compound E4, reference compound] | >0.7 g | 27000 L/mol |  | Absorption peak of the toluene solution [2]: 589 nm; Emission peak of the toluene solution [2]: 613 nm |
| Cc1cccc(C)c1N(c1cc(C(C)(C)C)cc(C(C)(C)C)c1)c1cc(N(c2cc(C(C)(C)C)cc(C(C)(C)C)c2)c2c(C)cccc2C)c2ccc3c(N(c4cc(C(C)(C)C)cc(C(C)(C)C)c4)c4c(C)cccc4C)cc(N(c4cc(C(C)(C)C)cc(C(C)(C)C)c4)c4c(C)cccc4C)c4ccc1c2c43 [Compound 7] | 4.6 g | 56000 L/mol | very small red shift | Times t80 [4]: 280 min |
| CC1CCC(C(C)C)C(Oc2ccc(-c3cc(C(C)C)ccc3N(c3cc(F)c(F)c(F)c3)c3cc(N(c4cc(F)c(F)c(F)c4)c4ccc(C(C)C)cc4-c4ccc(OC5CC(C)CCC5C(C)C)cc4)c4ccc5c(N(c6cc(F)c(F)c(F)c6)c6ccc(C(C)C)cc6-c6ccc(OC7CC(C)CCC7C(C)C)cc6)cc(N(c6cc(F)c(F)c(F)c6)c6ccc(C(C)C)cc6-c6ccc(OC7CC(C)CCC7C(C)C)cc6)c6ccc3c4c65)cc2)C1 (stereo not shown) [Compound 23] | >10 g | 68000 L/mol | very small red shift | Times t80 [4]: 405 min |
| Cc1cc2ccccc2cc1N(c1ccc(C(C)(C)C)cc1)c1cc(N(c2ccc(C(C)(C)C)cc2)c2cc3ccccc3cc2C)c2ccc3c(N(c4ccc(C(C)(C)C)cc4)c4cc5ccccc5cc4C)cc(N(c4ccc(C(C)(C)C)cc4)c4cc5ccccc5cc4C)c4ccc1c2c43 [Compound 13] | >2.5 g |  |  |  |
| CCCCCCCCc1ccc(N(c2ccc(C(C)C)cc2-c2cc(F)c(F)c(F)c2)c2cc(N(c3ccc(CCCCCCCC)cc3)c3ccc(C(C)C)cc3-c3cc(F)c(F)c(F)c3)c3ccc4c(N(c5ccc(CCCCCCCC)cc5)c5ccc(C(C)C)cc5-c5cc(F)c(F)c(F)c5)cc(N(c5ccc(CCCCCCCC)cc5)c5ccc(C(C)C)cc5-c5cc(F)c(F)c(F)c5)c5ccc2c3c54)cc1 [Compound 26] | >10 g | 55000 L/mol | very small red shift | Times t80 [4]: 486 min |
| CC(C)c1cccc(C(C)C)c1N(c1ccc(C(C)(C)C)cc1)c1cc(N(c2ccc(C(C)(C)C)cc2)c2c(C(C)C)cccc2C(C)C)c2ccc3c(N(c4ccc(C(C)(C)C)cc4)c4c(C(C)C)cccc4C(C)C)cc(N(c4ccc(C(C)(C)C)cc4)c4c(C(C)C)cccc4C(C)C)c4ccc1c2c43 [Compound 8] | >20 g |  |  |  |
| Cc1cccc(C)c1N(c1ncc2ccccc2n1)c1cc(C(C)C)c2ccc3c(N(c4ncc5ccccc5n4)c4c(C)cccc4C)cc(C(C)C)c4ccc1c2c43 [Compound 19] | >1 g |  |  |  |
| Cc1cc2ccccc2c(C)c1N(c1ccc(C(C)(C)C)cc1)c1cc(N(c2ccc(C(C)(C)C)cc2)c2c(C)cc3ccccc3c2C)c2ccc3c(N(c4ccc(C(C)(C)C)cc4)c4c(C)cc5ccccc5c4C)cc(N(c4ccc(C(C)(C)C)cc4)c4c(C)cc5ccccc5c4C)c4ccc1c2c43 [Compound 14] | >2 g |  |  |  |
| CC(C)(C)c1ccc(N(c2ccccc2)c2cc(N(c3ccccc3)c3ccc(C(C)(C)C)cc3)c3ccc4c(N(c5ccccc5)c5ccc(C(C)(C)C)cc5)cc(N(c5ccccc5)c5ccc(C(C)(C)C)cc5)c5ccc2c3c54)cc1 [Compound 21] | >3 g | 40000 L/mol | large red shift | Absorption peak of the toluene solution [2]: 469 nm; Emission peak of the toluene solution [2]: 495 nm; Absorption peak of the film [3]: 472 nm; Emission peak of the film [3]: 546 nm |
| Cc1cccc(C)c1N(c1ccc(C(F)(F)F)cc1)c1cc(N(c2ccc(C(F)(F)F)cc2)c2c(C)cccc2C)c2ccc3c(N(c4ccc(C(F)(F)F)cc4)c4c(C)cccc4C)cc(N(c4ccc(C(F)(F)F)cc4)c4c(C)cccc4C)c4ccc1c2c43 [Compound 15] | >4 g |  |  |  |
| CC(C)(C)c1ccc2c(c1)c1cc(C(C)(C)C)cc3c1n2-c1cccc2c1B3c1cc3c4ccccc4c4ccccc4c3c3c4c5c6ccccc6c6ccccc6c5ccc4n-2c13 [Compound E2, reference compound] | >0.7 g | 48000 L/mol |  |  |
| CCCCCCCCc1ccc(-c2cc(N(c3ccc(C(C)(C)C)cc3)c3ccc(C(C)(C)C)cc3)ccc2N(c2cc(F)c(F)c(F)c2)c2cc(N(c3cc(F)c(F)c(F)c3)c3ccc(N(c4ccc(C(C)(C)C)cc4)c4ccc(C(C)(C)C)cc4)cc3-c3ccc(CCCCCCCC)cc3)c3ccc4c(N(c5cc(F)c(F)c(F)c5)c5ccc(N(c6ccc(C(C)(C)C)cc6)c6ccc(C(C)(C)C)cc6)cc5-c5ccc(CCCCCCCC)cc5)cc(N(c5cc(F)c(F)c(F)c5)c5ccc(N(c6ccc(C(C)(C)C)cc6)c6ccc(C(C)(C)C)cc6)cc5-c5ccc(CCCCCCCC)cc5)c5ccc2c3c54)cc1 [Compound 25] | >10 g | 51000 L/mol | very small red shift |  |
| Cc1ccccc1N(c1ccc(C(C)(C)C)cc1C)c1cc(N(c2ccccc2C)c2ccc(C(C)(C)C)cc2C)c2ccc3c(N(c4ccccc4C)c4ccc(C(C)(C)C)cc4C)cc(N(c4ccccc4C)c4ccc(C(C)(C)C)cc4C)c4ccc1c2c43 [Compound 12] | >3 g |  |  |  |

— patent publication US20250280696A1, “FORMULATIONS AND USES THEREOF IN OPTOELECTRONIC FIELD” (Zhejiang Brilliant Optoelectronic Technology Co.,Ltd., priority 2022, published 2025)
